Calls of active or inactive are those of the source. No cut-off for these calls is given here.
Experiments:
[1] = system: BaF3; assay: Antiproliferative activity against wild type mouse BaF3 cells assessed as inhibition of cell growth measured after 3 days by celltiter-glo luminescent cell viability assay; type: functional, cell-based; conditions: BaF3, 72 h
[2] = system: Jurkat; assay: Antiproliferative activity against non-FLT3 expressing human Jurkat cells assessed as inhibition of cell growth measured after 3 days by celltiter-glo luminescent cell viability assay; type: functional, cell-based; conditions: 72 h
[3] = Antiproliferative activity against non-FLT3 expressing human OCI-Ly1 cells assessed as inhibition of cell growth measured after 3 days by celltiter-glo luminescent cell viability assay; type: functional, cell-based; conditions: OCI-Ly1, 72 h
[4] = biological target: Cyclin-dependent kinase 1/cyclin B1 (Homo sapiens) (UniProt P06493+P14635); assay: Inhibition of human CDK1/CyclinB1 at 1 uM by Eurofins-DiscoverX assay; type: protein-complex assay
[5] = biological target: T1, Cyclin-dependent kinase 5/CDK5 activator 1 (Homo sapiens) (UniProt Q00535+Q15078); assay: Inhibition of human CDK5/p25 at 1 uM by Eurofins-DiscoverX assay; type: protein-complex assay
[6] = biological target: Cyclin-dependent kinase 2/cyclin A (Homo sapiens) (UniProt P24941+P20248+P78396); assay: Inhibition of human CDK2/CyclinA assessed as remaining activity at 1 uM by Eurofins-DiscoverX assay relative to control; type: protein-complex assay
[7] = biological target: T1, Cyclin-dependent kinase 5/CDK5 activator 1 (Homo sapiens); assay: Inhibition of human CDK5/p25 assessed as remaining activity at 1 uM by Eurofins-DiscoverX assay relative to control; type: protein-complex assay
[8] = biological target: CDK6/cyclin D3 (Homo sapiens) (UniProt P30281+Q00534); assay: Inhibition of human CDK6/cyclinD3 assessed as remaining activity at 1 uM by Eurofins-DiscoverX assay relative to control; type: protein-complex assay
[9] = biological target: Receptor-type tyrosine-protein kinase FLT3 (Homo sapiens, UniProt P36888); assay: Inhibition of FLT3 (unknown origin) using Fluorescein-Poly GT as substrate preincubated for 10 mins followed by substrate addition and measured after 30 mins in presence of ATP by mobility shift assay
[10] = system: BaF3; assay: Antiproliferative activity against mouse BaF3 cells harbouring FLT3-ITD-F691L mutant assessed as inhibition of cell growth measured after 3 days by celltiter-glo luminescent cell viability assay; type: functional, cell-based; conditions: BaF3, 72 h
[11] = system: MOLM-13; assay: Induction of apoptosis in human MOLM-13 cells assessed as viable cells at 0.3 uM incubated for 48 hrs by Annexin V-FITC/PI staining based flow cytometry analysis (reference value: 91.9%); type: functional; conditions: read-out: Activity
[12] = system: MOLM-13; assay: Induction of cell cycle arrest in human MOLM-13 cells assessed as accumulation of cells at G1 phase at 1 uM incubated for 48 hrs (reference value: 40.3%); type: functional
[13] = system: MOLM-13; assay: Induction of cell cycle arrest in human MOLM-13 cells assessed as accumulation of cells at G2 phase at 0.3 uM incubated for 48 hrs (reference value: […]); type: functional
[14] = Metabolic stability in Sprague-Dawley rat liver microsomes assessed as half life at 1 uM measured up to 60 mins in presence of NADPH regenerating system by LC-MS/MS analysis; type: ADME, Microsome
[15] = Metabolic stability in Sprague-Dawley rat liver microsomes assessed as parent compound remaining at 1 uM measured after 60 mins in presence of NADPH regenerating system by LC-MS/MS analysis; type: ADME, Microsome; conditions: read-out: Stability
[16] = Metabolic stability in Sprague-Dawley rat liver microsomes assessed as parent compound remaining at 1 uM measured after 60 mins by LC-MS/MS analysis; type: ADME, Microsome; conditions: read-out: Stability
[17] = Metabolic stability in human liver microsomes assessed as half life at 1 uM measured up to 60 mins in presence of NADPH regenerating system by LC-MS/MS analysis; type: ADME, Microsome
[18] = Metabolic stability in Beagle dog liver microsomes assessed as intrinsic clearance at 1 uM measured up to 60 mins in presence of NADPH regenerating system by LC-MS/MS analysis; type: ADME, Canis lupus familiaris, Microsome; conditions: read-out: CLH
[19] = biological target: CYP2D6 (Homo sapiens, UniProt P10635); assay: Inhibition of CYP2D6 in human liver microsomes using dextromethorphan as substrate at 10 uM incubated for 10 mins in presence of NADPH by LC-MS/MS analysis relative to control; type: ADME, Microsome; conditions: probe dextromethorphan
[20] = biological target: Voltage-gated inwardly rectifying potassium channel KCNH2 (Homo sapiens, UniProt Q12809); assay: Inhibition of human ERG expressed in CHO cells by Qpatch assay; type: toxicity, cell-based
[21] = AUC (0 to t) in mouse at 5 mg/kg, iv; type: ADME, organism-based; conditions: in vivo
[22] = Clearance in mouse at 5 mg/kg, iv; type: ADME, organism-based; conditions: in vivo
[23] = Half life in mouse at 10 mg/kg, po; type: ADME, organism-based; conditions: in vivo
[24] = AUC (0 to infinity) in mouse at 10 mg/kg, po; type: ADME, organism-based; conditions: in vivo
[25] = Oral bioavailability in mouse at 10 mg/kg; type: ADME, organism-based; conditions: in vivo

T1 sequence (Q00535 whole entry): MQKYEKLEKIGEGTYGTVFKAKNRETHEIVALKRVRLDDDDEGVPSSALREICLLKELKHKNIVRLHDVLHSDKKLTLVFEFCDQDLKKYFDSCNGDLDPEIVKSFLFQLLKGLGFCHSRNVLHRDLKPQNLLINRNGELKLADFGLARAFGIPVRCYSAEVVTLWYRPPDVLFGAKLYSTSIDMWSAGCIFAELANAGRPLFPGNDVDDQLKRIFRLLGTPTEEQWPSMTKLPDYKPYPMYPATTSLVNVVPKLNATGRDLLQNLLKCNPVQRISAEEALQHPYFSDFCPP
T1 sequence (Q15078 99-307 partner limits assumed): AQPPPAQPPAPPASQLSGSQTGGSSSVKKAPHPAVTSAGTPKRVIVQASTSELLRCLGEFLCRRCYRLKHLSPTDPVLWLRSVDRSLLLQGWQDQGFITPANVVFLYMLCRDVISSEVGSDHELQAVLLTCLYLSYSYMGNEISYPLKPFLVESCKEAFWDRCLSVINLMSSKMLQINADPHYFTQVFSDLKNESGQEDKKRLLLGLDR
Chain of Receptor-type tyrosine-protein kinase FLT3 (P36888 whole entry): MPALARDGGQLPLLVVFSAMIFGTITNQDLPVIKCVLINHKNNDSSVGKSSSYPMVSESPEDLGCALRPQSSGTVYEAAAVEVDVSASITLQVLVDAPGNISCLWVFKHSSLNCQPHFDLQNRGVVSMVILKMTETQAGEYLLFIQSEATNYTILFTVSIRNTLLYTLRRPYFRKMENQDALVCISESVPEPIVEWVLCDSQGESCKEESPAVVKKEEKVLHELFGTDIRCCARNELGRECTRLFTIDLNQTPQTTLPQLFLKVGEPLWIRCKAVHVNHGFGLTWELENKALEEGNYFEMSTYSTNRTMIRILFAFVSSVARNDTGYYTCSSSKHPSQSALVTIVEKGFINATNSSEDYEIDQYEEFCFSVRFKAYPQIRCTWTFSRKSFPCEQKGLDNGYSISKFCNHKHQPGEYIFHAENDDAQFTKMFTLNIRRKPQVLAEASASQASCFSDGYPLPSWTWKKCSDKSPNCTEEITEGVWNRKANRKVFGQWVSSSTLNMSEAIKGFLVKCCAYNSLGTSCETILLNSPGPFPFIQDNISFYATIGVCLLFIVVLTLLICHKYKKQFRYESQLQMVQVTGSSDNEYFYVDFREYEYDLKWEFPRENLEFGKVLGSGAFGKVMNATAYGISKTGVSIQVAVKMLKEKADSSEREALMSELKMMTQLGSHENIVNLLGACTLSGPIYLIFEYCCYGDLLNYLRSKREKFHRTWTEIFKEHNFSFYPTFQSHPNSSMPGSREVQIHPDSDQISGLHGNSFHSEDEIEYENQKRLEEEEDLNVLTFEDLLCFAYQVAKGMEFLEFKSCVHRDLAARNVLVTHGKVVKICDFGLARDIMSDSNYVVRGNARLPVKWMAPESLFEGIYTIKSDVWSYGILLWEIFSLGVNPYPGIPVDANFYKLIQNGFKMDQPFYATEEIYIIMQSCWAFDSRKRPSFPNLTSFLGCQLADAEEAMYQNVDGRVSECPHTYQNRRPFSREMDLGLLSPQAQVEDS
Chain of Voltage-gated inwardly rectifying potassium channel KCNH2 (Q12809 whole entry): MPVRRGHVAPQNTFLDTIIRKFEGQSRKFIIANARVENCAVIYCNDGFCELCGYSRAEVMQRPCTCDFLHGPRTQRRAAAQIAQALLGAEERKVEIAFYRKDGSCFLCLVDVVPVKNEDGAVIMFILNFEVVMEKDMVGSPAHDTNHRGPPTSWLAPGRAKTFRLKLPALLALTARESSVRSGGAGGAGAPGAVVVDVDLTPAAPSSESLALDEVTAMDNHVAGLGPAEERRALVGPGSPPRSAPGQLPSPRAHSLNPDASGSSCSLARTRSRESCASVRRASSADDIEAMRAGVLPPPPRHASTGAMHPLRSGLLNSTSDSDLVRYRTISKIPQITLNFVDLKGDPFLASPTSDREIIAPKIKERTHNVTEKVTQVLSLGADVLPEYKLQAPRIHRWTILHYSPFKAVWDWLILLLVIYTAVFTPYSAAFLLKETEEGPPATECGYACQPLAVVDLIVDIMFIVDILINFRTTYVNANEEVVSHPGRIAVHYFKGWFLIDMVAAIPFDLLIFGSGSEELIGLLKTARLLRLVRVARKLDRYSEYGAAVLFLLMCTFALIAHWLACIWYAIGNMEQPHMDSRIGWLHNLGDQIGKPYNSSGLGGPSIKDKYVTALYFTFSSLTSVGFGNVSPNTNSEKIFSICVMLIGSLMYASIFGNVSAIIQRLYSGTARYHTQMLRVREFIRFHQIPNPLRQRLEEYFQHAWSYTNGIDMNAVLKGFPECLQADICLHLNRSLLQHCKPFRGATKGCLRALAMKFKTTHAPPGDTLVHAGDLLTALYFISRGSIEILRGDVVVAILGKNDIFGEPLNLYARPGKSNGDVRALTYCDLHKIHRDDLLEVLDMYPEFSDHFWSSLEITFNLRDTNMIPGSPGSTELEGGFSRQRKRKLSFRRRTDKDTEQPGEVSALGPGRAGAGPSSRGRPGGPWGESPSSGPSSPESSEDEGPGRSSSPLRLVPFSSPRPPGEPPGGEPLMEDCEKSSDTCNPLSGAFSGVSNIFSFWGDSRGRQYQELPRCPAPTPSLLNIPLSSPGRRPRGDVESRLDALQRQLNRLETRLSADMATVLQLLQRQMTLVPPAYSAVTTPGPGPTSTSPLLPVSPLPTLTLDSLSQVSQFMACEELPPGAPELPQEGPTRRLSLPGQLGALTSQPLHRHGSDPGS
Chain of Cyclin-dependent kinase 1/cyclin B1 (Homo sapiens) (P06493 whole entry, looked up): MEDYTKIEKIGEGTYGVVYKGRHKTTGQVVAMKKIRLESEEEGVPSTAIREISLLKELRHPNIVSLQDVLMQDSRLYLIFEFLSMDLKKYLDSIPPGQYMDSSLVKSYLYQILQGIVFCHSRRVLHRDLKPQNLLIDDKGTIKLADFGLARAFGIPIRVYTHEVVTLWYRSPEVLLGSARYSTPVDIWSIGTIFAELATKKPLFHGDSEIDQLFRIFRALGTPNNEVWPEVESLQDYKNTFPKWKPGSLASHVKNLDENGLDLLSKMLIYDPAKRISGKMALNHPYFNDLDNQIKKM
Chain of Cyclin-dependent kinase 1/cyclin B1 (Homo sapiens) (P14635 whole entry, looked up): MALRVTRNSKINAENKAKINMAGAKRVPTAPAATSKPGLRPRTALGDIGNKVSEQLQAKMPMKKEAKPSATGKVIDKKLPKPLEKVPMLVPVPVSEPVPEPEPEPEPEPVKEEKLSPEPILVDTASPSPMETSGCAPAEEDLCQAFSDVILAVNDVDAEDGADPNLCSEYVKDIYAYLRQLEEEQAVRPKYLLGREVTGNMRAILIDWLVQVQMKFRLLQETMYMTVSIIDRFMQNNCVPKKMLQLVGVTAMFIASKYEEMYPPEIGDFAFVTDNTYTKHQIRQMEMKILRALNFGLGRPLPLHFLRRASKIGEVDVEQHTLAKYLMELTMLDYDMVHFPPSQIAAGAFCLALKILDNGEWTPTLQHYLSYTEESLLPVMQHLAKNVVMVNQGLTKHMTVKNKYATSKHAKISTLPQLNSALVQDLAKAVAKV
Chain of CYP2D6 (P10635 whole entry): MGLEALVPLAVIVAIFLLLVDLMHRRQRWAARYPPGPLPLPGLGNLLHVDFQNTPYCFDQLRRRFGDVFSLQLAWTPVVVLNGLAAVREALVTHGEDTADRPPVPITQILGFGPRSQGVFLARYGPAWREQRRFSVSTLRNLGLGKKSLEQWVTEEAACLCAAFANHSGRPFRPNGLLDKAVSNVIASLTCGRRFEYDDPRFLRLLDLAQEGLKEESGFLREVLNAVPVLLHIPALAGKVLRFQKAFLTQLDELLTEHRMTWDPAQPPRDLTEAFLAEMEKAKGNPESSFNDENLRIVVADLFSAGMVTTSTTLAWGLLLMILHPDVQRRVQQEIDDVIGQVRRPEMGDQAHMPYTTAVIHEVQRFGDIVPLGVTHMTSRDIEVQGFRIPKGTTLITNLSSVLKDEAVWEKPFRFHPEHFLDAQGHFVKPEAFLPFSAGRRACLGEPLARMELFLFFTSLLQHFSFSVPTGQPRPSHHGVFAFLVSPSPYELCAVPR

Q: Which IC50 [1] does the source give for Cc1cc(=O)n(-c2cc(Cl)ccc2F)nc1C(=O)Nc1ccc(Oc2ccnc(NC(=O)N3CC(O)C3)c2)c(F)c1 here?
A: > 10 µM

Q: And the IC50 [2]?
A: > 30 µM

Q: What about the IC50 [3] of the same compound?
A: 12.3 µM

Q: What about the inhibition [4] of the same compound?
A: inactive

Q: And the inhibition [5]?
A: inactive

Q: And the Activity [6]?
A: 88%

Q: What about the Activity [7] of the same compound?
A: 88%

Q: And the Activity [8]?
A: 88%

Q: And the IC50 [9]?
A: 0.475 µM

Q: What about the IC50 [10] of the same compound?
A: 4.9 µM

Q: And the viability at 0.3 µM [11]?
A: 74.2%

Q: And the Activity [12]?
A: 78.2%

Q: What about the Activity [13] of the same compound?
A: 8.51%

Q: What about the half-life at 1 µM [14] of the same compound?
A: 1.95 h

Q: What about the remaining at 1 h, 1 µM [15] of the same compound?
A: 69.2%

Q: And the remaining at 1 h, 1 µM [16]?
A: 108%

Q: And the half-life at 1 µM [17]?
A: 1.82 h

Q: And the microsomal CLint at 1 µM [18]?
A: 11.1 µL/min/mg

Q: And the inhibition at 10 min, 10 µM [19]?
A: 19.8%

Q: And the IC50 [20]?
A: > 30 µM

Q: And the AUC(0-t) [21]?
A: 2030 ng·h/mL

Q: And the clearance [22]?
A: 38.8 mL/min/kg

Q: And the half-life [23]?
A: 1.83 h

Q: What about the AUC(0-inf) [24] of the same compound?
A: 1430 ng·h/mL

Q: And the bioavailability [25]?
A: 32.4%

— ChEMBL document CHEMBL6109114, “Design, synthesis, and biological evaluation of 4-(2-fluorophenoxy)pyridine derivatives as novel FLT3-ITD inhibitors” (Eur J Med Chem, 2025)
